For orientation: IC50 means the concentration at which inhibition is half-maximal. Low readings indicate higher potency, high ones lower potency.

In the assay the target is T1, Phospholipase A2, membrane associated (Homo sapiens, UniProt P14555).
T1 sequence (P14555 whole entry): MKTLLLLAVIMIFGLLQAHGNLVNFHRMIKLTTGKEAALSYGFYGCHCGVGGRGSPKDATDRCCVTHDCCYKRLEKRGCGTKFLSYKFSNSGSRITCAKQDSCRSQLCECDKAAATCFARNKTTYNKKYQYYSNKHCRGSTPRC
Description: Inhibition of sPLA2-2A in HEK293 cell. The format is cell-based.
In the case of `O=c1cc(-c2ccc(-c3ccc4oc(-c5ccccc5)cc(=O)c4c3)cc2)oc2ccccc12`, the IC50 was 63.9 µM.

With `O=c1cc(-c2ccc(Oc3cc(-c4cc(=O)c5c(O)cc(O)cc5o4)ccc3O)cc2)oc2cc(O)cc(O)c12` [OCHNAFLAVONE], inhibition was half-maximal at 3.5 µM (IC50). `O=c1cc(-c2ccc(-c3ccc(-c4cc(=O)c5ccccc5o4)cc3)cc2)oc2ccccc12` had an IC50 of 3 µM.

In the case of `O=c1cc(-c2ccccc2)oc2ccc(-c3ccc4oc(-c5ccccc5)cc(=O)c4c3)cc12`, half-maximal inhibition (IC50) was put at 69.3 µM. The figure for `O=c1cc(-c2cccc(-c3ccc4oc(-c5ccccc5)cc(=O)c4c3)c2)oc2ccccc12` is 19.9 µM; for `O=c1cc(-c2ccc(-c3c(-c4ccccc4)oc4ccccc4c3=O)cc2)oc2ccccc12` it is 23.2 µM. The figure for `O=c1cc(-c2ccc(O)c(-c3c(O)cc(O)c4c(=O)cc(-c5ccc(O)cc5)oc34)c2)oc2cc(O)cc(O)c12` [AMENTOFLAVONE] is 23.8 µM; for `O=c1cc(-c2ccc(-c3cccc(-c4cc(=O)c5ccccc5o4)c3)cc2)oc2ccccc12` it is 15.5 µM.

The values above are taken from ChEMBL document CHEMBL1146997, “Synthesis of phospholipase A2 inhibitory biflavonoids” (Bioorg Med Chem Lett, 2006).
